Key:
Caspase-1 = target: T1, Caspase-1 (Homo sapiens, UniProt P29466); experiment: Inhibition of caspase-1 using fluorogenic substrate and BMG Fluostar plate reader for 30 min at 37 degree C
T1 sequence (P29466 whole entry): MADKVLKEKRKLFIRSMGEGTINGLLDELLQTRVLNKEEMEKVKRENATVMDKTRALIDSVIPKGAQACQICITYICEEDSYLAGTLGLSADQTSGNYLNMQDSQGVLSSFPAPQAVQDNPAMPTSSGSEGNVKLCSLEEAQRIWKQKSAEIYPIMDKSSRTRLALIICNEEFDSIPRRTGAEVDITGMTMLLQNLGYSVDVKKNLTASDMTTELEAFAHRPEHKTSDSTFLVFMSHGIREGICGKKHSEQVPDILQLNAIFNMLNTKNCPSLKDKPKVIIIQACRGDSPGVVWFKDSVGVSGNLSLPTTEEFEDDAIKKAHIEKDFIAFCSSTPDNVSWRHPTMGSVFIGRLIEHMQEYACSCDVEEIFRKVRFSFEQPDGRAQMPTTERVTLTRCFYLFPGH

THP-1 = experiment: Inhibition of 1 ug/mL LPS-induced IL1-beta production in human monocytic cells after 4 hrs; format: functional, cell-based; conditions: THP-1, 4 h
Caspase-3 = target: T2, Caspase-3 (Homo sapiens, UniProt P42574); experiment: Inhibition of caspase 3 using fluorogenic substrate and BMG Fluostar plate reader for 30 min at 37 degree C
T2 sequence (P42574 whole entry): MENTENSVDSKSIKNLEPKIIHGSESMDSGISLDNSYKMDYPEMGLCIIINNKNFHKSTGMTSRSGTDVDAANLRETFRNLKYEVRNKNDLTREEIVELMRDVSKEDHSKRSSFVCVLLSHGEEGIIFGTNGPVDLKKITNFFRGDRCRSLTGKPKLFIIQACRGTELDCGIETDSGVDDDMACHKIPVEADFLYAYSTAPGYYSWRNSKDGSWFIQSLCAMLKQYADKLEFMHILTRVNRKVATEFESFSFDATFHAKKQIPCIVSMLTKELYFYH

Caspase-8 = Caspase-8 (Homo sapiens, UniProt Q14790); experiment: Inhibition of caspase 8 using fluorogenic substrate and BMG Fluostar plate reader for 30 min at 37 degree C
Caspase-8, sequence (Q14790 217-374 limits assumed): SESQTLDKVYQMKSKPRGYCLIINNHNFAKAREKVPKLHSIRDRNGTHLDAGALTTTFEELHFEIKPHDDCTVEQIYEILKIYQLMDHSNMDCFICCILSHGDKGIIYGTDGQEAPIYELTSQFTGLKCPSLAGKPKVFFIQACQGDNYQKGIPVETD
Caspase-8, sequence (Q14790 385-479 limits assumed): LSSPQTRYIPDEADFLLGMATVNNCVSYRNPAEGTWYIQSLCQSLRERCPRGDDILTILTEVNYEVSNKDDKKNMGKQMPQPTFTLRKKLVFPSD

IC50 (Caspase-1) [nM]	IC50 (THP-1) [nM]	IC50 (Caspase-3) [nM]	IC50 (Caspase-8) [nM]	SMILES
–	577	–	–	O=C(CN1CCCN(C(=O)C2CCCCC2)C[C@H](NC(=O)c2ccc3ccccc3c2)C1=O)N[C@H]1CC(=O)OC1O (stereo partly specified)
30	280	> 10000	> 10000	O=C(CN1CCCN(C(=O)c2ccccc2)C[C@H](NC(=O)c2nccc3ccccc23)C1=O)N[C@H]1CC(=O)OC1O (stereo partly specified)
–	560	–	–	O=C(CN1CCCN(C(=O)c2ccccc2)C[C@H](NC(=O)c2cc3ccccc3s2)C1=O)N[C@H]1CC(=O)OC1O (stereo partly specified)
38	246	> 10000	> 10000	COc1ccccc1C(=O)N1CCCN(CC(=O)N[C@H]2CC(=O)OC2O)C(=O)[C@@H](NC(=O)c2ccc3ccccc3c2)C1 (stereo partly specified)
–	216	–	–	CC(=O)N1CCCN(CC(=O)N[C@H]2CC(=O)OC2O)C(=O)[C@@H](NC(=O)c2ccc3ccccc3c2)C1 (stereo partly specified)
–	1020	–	–	O=C(CN1CCCN(C(=O)c2ccccc2)C[C@H](NC(=O)c2cccc(C(F)(F)F)c2)C1=O)N[C@H]1CC(=O)OC1O (stereo partly specified)
15	229	> 10000	> 10000	COc1cccc(C(=O)N2CCCN(CC(=O)N[C@H]3CC(=O)OC3O)C(=O)[C@@H](NC(=O)c3ccc4ccccc4c3)C2)c1 (stereo partly specified)
24	285	> 10000	> 10000	O=C(CN1CCCN(C(=O)N2CCNCC2)C[C@H](NC(=O)c2ccc3ccccc3c2)C1=O)N[C@H]1CC(=O)OC1O (stereo partly specified)

The next lines start with the compound.

SMILES	IC50 (Caspase-1) [nM]	IC50 (THP-1) [nM]	IC50 (Caspase-3) [nM]	IC50 (Caspase-8) [nM]
CCO[C@@H]1OC(=O)C[C@@H]1NC(=O)[C@@H]1CCCN2C(=O)CC[C@H](NC(=O)c3nccc4ccccc34)C(=O)N12 [PRALNACASAN]	2	120	–	–
O=C(CN1CCCN(C(=O)Cc2ccccc2)C[C@H](NC(=O)c2ccc3ccccc3c2)C1=O)N[C@H]1CC(=O)OC1O (stereo partly specified)	–	808	–	–
O=CN1CCCN(CC(=O)N[C@H]2CC(=O)OC2O)C(=O)[C@@H](NC(=O)c2ccc3ccccc3c2)C1 (stereo partly specified)	–	219	–	–
O=C(CN1CCCN(C(=O)c2cccc(F)c2)C[C@H](NC(=O)c2ccc3ccccc3c2)C1=O)N[C@H]1CC(=O)OC1O (stereo partly specified)	22	297	> 10000	> 10000
O=C(CN1CCCN(C(=O)N2CCOCC2)C[C@H](NC(=O)c2ccc3ccccc3c2)C1=O)N[C@H]1CC(=O)OC1O (stereo partly specified)	44	224	> 10000	> 10000
O=C(CN1CCCN(C(=O)c2ccccc2)C[C@H](NC(=O)c2ccc3ccccc3c2)C1=O)N[C@H]1CC(=O)OC1O (stereo partly specified)	19	205	> 10000	> 10000
O=C(CN1CCCN(C(=O)c2ccccc2C(F)(F)F)C[C@H](NC(=O)c2ccc3ccccc3c2)C1=O)N[C@H]1CC(=O)OC1O (stereo partly specified)	–	1520	–	–
O=C(CN1CCCN(C(=O)c2ccccc2)C[C@H](NC(=O)c2ccccc2)C1=O)N[C@H]1CC(=O)OC1O (stereo partly specified)	–	1020	–	–
O=C(CN1CCCN(C(=O)c2cccc(C(F)(F)F)c2)C[C@H](NC(=O)c2ccc3ccccc3c2)C1=O)N[C@H]1CC(=O)OC1O (stereo partly specified)	–	1740	–	–
Cc1ccc(Cl)cc1C(=O)N1CCCN(CC(=O)N[C@H]2CC(=O)OC2O)C(=O)[C@@H](NC(=O)c2ccc3ccccc3c2)C1 (stereo partly specified)	–	> 2500	–	–
Cc1ccc(Cl)cc1C(=O)N[C@H]1CN(C(=O)c2ccccc2)CCCN(CC(=O)N[C@H]2CC(=O)OC2O)C1=O (stereo partly specified)	–	298	–	–
